# In paper PMC10196468, “Synthesis, in vitro biological assessment, and molecular docking study of benzimidazole-based thiadiazole derivatives as dual inhibitors of α-amylase and α-glucosidase” (Frontiers in Chemistry, 2023):
# Tests used:
# [1] = target: α-glucosidase; experiment: in vitro α-glucosidase inhibitory assay (p-nitrophenyl-D-glucopyranoside, 405 nm); assay type: biochemical; settings: triplicates; standard acarbose; read-out: α-Glucosidase IC50 (µM ±SEM)
# Description: 10 µl of the α-glucosidase enzyme, 20 µl of test samples (10-50 µg/ml) and 50 µl, of 0.1M phosphate buffer (pH=6.8), were incubated at 37°C for 15 min in a 96-well plate. 20 µl of p-nitrophenyl—D-glucopyranoside solution was further added as a substrate and again incubated for 20 min at 37 °C. Sodium carbonate (50 µl of 0.1M) was added to terminate the reaction. P-nitrophenol was liberated, during the reaction which was measured at 405nm using an ELISA microplate reader. […] All the experiments were carried out in triplicates. The percentage inhibition was calculated by the formula.
# % Inhibition = [(Ac – As) /Ac] × 100 Ac-absorbance for control, As-absorbance for standard.
# [2] = target: T1, α-amylase (Sus scrofa, UniProt P00690); experiment: in vitro α-amylase inhibitory assay (starch/DNS, absorbance 540 nm); assay type: biochemical; settings: triplicates; standard acarbose; read-out: α-Amylase IC50 (µM ±SEM)
# T1 sequence (P00690 16-511): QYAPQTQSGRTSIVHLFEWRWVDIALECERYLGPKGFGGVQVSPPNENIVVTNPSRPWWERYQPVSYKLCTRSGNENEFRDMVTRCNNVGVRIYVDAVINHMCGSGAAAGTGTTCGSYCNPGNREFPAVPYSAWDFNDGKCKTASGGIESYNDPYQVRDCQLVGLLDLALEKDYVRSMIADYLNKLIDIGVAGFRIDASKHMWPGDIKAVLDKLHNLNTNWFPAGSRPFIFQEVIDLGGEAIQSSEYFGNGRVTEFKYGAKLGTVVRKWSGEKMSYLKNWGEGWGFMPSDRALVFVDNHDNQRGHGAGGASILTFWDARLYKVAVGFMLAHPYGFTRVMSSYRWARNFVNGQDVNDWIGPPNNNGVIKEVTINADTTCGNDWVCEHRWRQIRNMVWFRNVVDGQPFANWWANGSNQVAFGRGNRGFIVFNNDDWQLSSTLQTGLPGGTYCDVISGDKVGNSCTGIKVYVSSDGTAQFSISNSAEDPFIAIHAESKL
# Description: 20µL of α -amylase solution (0.5 mg/ml) was added to phosphate buffer (pH 6.9, 0.02 M, 200 µL). 250 μL of test samples (10-50 µg/mL) was added, to all the above solutions and kept for incubation for 10 min.1% starch solution (200µL) was further added and again kept for incubation for 10 min at a temperature of 25°C. Termination of the reaction was affected by the addition of 400 μL of 3, 5-dinitrosalicylic acid (DNS) reagent. Lastly, it was incubated in water (at 70°C, 5 min). The absorbance was recorded using an ELISA microplate reader at 540 nm. […] All the reactions were carried out in triplicates. The reaction mixture, devoid of the test sample, served as control. The following formula was employed to calculate percentage inhibition..
# % Inhibition = [(Ac – As) /Ac] × 100 Ac-Control absorbance, As-Standard absorbance
IC50 [1] [µM],Molecule,IC50 [2] [µM]
2.8 ± 0.2,"FC(F)(F)c1ccc(/C=N/c2nnc(-c3cccc4[nH]cnc34)s2)cc1 [Analog 1, (E)-N-(5-(1H-benzo[d]imidazol-4-yl)-1,3,4-thiadiazol-2-yl)-1-(4-(trifluoromethyl)phenyl)methanimine]",–
2.1 ± 0.1,"Oc1cc(F)ccc1/C=N/c1nnc(-c2cccc3[nH]cnc23)s1 [Analog 2, (E)-2-(((5-(1H-benzo[d]imidazol-4-yl)-1,3,4-thiadiazol-2-yl)imino)methyl)-5-fluorophenol]",–
24.6 ± 0.2,"O=[N+]([O-])c1cc(Br)ccc1/C=N/c1nnc(-c2cccc3[nH]cnc23)s1 [Analog 3, (E)-N-(5-(1H-benzo[d]imidazol-4-yl)-1,3,4-thiadiazol-2-yl)-1-(4-bromo-2-nitrophenyl)methanimine]",–
7.4 ± 0.3,"O=[N+]([O-])c1ccccc1/C=N/c1nnc(-c2cccc3[nH]cnc23)s1 [Analog 4, (E)-N-(5-(1H-benzo[d]imidazol-4-yl)-1,3,4-thiadiazol-2-yl)-1-(2 nitrophenyl)methanimine]",–
5.7 ± 0.2,"O=[N+]([O-])c1ccc(/C=N/c2nnc(-c3cccc4[nH]cnc34)s2)cc1 [Analog 5, (E)-N-(5-(1H-benzo[d]imidazol-4-yl)-1,3,4-thiadiazol-2-yl)-1-(4-nitrophenyl)methanimine]",–
15.3 ± 0.1,"Cc1ccc(/C=N/c2nnc(-c3cccc4[nH]cnc34)s2)cc1 [Analog 6, (E)-N-(5-(1H-benzo[d]imidazol-4-yl)-1,3,4-thiadiazol-2-yl)-1-(p-tolyl)methanimine]",–
19.9 ± 0.1,"Cc1ccccc1/C=N/c1nnc(-c2cccc3[nH]cnc23)s1 [Analog 7, (E)-N-(5-(1H-benzo[d]imidazol-4-yl)-1,3,4-thiadiazol-2-yl)-1-(o-tolyl)methanimine]",–
21.6 ± 0.3,"Cc1cccc(/C=N/c2nnc(-c3cccc4[nH]cnc34)s2)c1 [Analog 8, (E)-N-(5-(1H-benzo[d]imidazol-4-yl)-1,3,4-thiadiazol-2-yl)-1-(m-tolyl)methanimine]",–
3.9 ± 0.1,"Fc1ccc(/C=N/c2nnc(-c3cccc4[nH]cnc34)s2)cc1 [Analog 9, (E)-N-(5-(1H-benzo[d]imidazol-4-yl)-1,3,4-thiadiazol-2-yl)-1-(4-fluorophenyl)methanimine]",–
14.5 ± 0.5,"COc1ccc(OC)c(/C=N/c2nnc(-c3cccc4[nH]cnc34)s2)c1 [Analog 10, (E)-N-(5-(1H-benzo[d]imidazol-4-yl)-1,3,4-thiadiazol-2-yl)-1-(2,5-dimethoxyphenyl)methanimine]",–
15.4 ± 0.3,"COc1ccccc1/C=N/c1nnc(-c2cccc3[nH]cnc23)s1 [Analog 12, (E)-N-(5-(1H-benzo[d]imidazol-4-yl)-1,3,4-thiadiazol-2-yl)-1-(2-methoxyphenyl)methanimine]",–
17.2 ± 0.3,"COc1cccc(/C=N/c2nnc(-c3cccc4[nH]cnc34)s2)c1 [Analog 13, (E)-N-(5-(1H-benzo[d]imidazol-4-yl)-1,3,4-thiadiazol-2-yl)-1-(3-methoxyphenyl)methanimine]",–
9.3 ± 0.4,"O=[N+]([O-])c1cc(Cl)ccc1/C=N/c1nnc(-c2cccc3[nH]cnc23)s1 [Analog 14, (E)-N-(5-(1H-benzo[d]imidazol-4-yl)-1,3,4-thiadiazol-2-yl)-1-(4-chloro-2-nitrophenyl)methanimine]",–
6.6 ± 0.1,"Clc1cccc(/C=N/c2nnc(-c3cccc4[nH]cnc34)s2)c1Cl [Analog 15, (E)-N-(5-(1H-benzo[d]imidazol-4-yl)-1,3,4-thiadiazol-2-yl)-1-(2,3-dichlorophenyl)methanimine]",–
26.1 ± 0.1,"Brc1ccc(/C=N/c2nnc(-c3cccc4[nH]cnc34)s2)cc1 [Analog 16, (E)-N-(5-(1H-benzo[d]imidazol-4-yl)-1,3,4-thiadiazol-2-yl)-1-(4-bromophenyl)methanimine]",–

Molecule,IC50 [1] [µM],IC50 [2] [µM]
"(E)-N-(5-(1H-benzo[d]imidazol-4-yl)-1,3,4-thiadiazol-2-yl)-1-(3-fluorophenyl)methanimine [Analog 11]",4.7 ± 0.1,3.18 ± 0.1
"(E)-N-(5-(1H-benzo[d]imidazol-4-yl)-1,3,4-thiadiazol-2-yl)-1-(4-bromophenyl)methanimine [Analog 17]",2.3 ± 0.6,2.16 ± 0.5
